Source: patent US8304422B2, “Compositions and methods for inhibition of the JAK pathway” (Rigel Pharmaceuticals, Inc., priority 2007, dated 2012)

tested on: BaF3 V617F cells; UKE-1; experiment: Proliferation Assay (Cell Titer-Glo; Example 7); format: cell-based; settings: proliferation 72 hours, inhibit JAK2 activity, cell line (BaF3 V617F or UKE-1) not stated
Protocol: BaF3 V617F cells are maintained and plated in RPMI with 10% FBS. Plating density for these cells is 1×10^5 cells/mL.
UKE-1 are maintained and plated in Iscove's DMEM containing 10% FBS, 10% equine serum, 1% penicillin/streptomycin and 1 uM hydrocortisone. Plating density for these cells is 0.4×10^6 cells/mL
The cells were resuspended in a corresponding medium at a required cell density (see above). 100μ of cell suspension was added to each well of a flat bottom 96 well white plate. The compound was serially diluted in DMSO from 5 mM in 3-fold dilutions, and then diluted 1:250 in the RPMI 1640 medium containing 5% FBS and pen/strep. 100 μL of resulting 2× compound solution was added per well in duplicate and the cells were allowed to proliferate for 72 hours at 37° C.
Proliferation was measured using Cell Titer-Glo. The substrate was thawed and allowed to come to room temperature. After removal of top 100 μL of medium from each well, 100 μL of the premixed Cell Titer-Glo reagent was added to each well. The plates were mixed on an orbital shaker for three minutes to induce lysis and incubated at ambient temperature for an additional five minutes to allow the signal to equilibrate. The Luminescence was read on the Wallac Plate Reader.
The results of the ability of the compounds of the invention to inhibit JAK2 activity, when tested in the above assay, are shown in the following Table XI wherein the level of activity (i.e., the IC50) for each compound is indicated in Table XI. The compound numbers in Table XI refers to the compounds disclosed herein as being prepared by the methods disclosed herein: […]

Cc1cc(Nc2ncc(C)c(Nc3ccc(CNS(=O)(=O)C4CC4)cc3)n2)ccc1N1CCN(C)CC1 [II-202, 5-Methyl-N4-[4-(N-cyclopropylsulfonylamino)methylphenyl]-N2-[3-methyl-4-(N-methylpiperizin-4-yl)phenyl]-2,4-pyrimidinediamine] was tested. Which IC50 did it give?
The IC50 was 1440 nM.

With COc1c(C)cc(Nc2ncc(Cl)c(Nc3ccc(CNS(=O)(=O)N(C)C)cc3)n2)cc1Cl [II-93, 5-Chloro-N2-(3-chloro-4-methoxy-5-methylphenyl)-N4-[(4-(dimethylamino)sulfonylamino)methylphenyl]-2,4-pyrimidinediamine] as the compound, how does the IC50 read?
The IC50 was 350 nM.

“5-Chloro-N4-[4-[N-cyclopropylsulfonyl)-N′-(3-(4-morpholine)propion-1-yl)amino]methylphenyl]-N2-(3,5-dimethyl-4-methoxyphenyl)-2,4-pyrimidinediamine [II-141]” was tested. Which IC50 did it give?
The IC50 was 73.9 nM.

Which IC50 does the source give for “N4-[4-(N-Cyclopropylsulfonylamino)methylphenyl]-N2-[3,4-dimethyl-4-(2-(4-morpholinyl)ethoxy)phenyl]-5-methyl-2,4-pyrimidinediamine [II-159]” here?
Its IC50 is 47.6 nM.

With CCOc1c(C)cc(Nc2ncc(C)c(Nc3ccc(CNS(=O)(=O)C4CC4)cc3)n2)cc1C [II-214, 5-Methyl-N4-[4-(N-cyclopropylsulfonylamino)methylphenyl]-N2-[3,5-dimethyl-4-ethoxyphenyl]-2,4-pyrimidinediamine] as the compound, how does the IC50 read?
Its IC50 is 55.6 nM.

Cc1cnc(Nc2ccc(OCCN3CC(C)OC(C)C3)cc2)nc1Nc1ccc(CCNS(=O)(=O)C2CC2)cc1 (stereo not drawn) [II-65] was tested. Which IC50 did it give?
The IC50 was 327 nM.

With “5-Chloro-N4-[4-(N-cyclopropylsulfonylamino)methylphenyl]-N2-[2,4-dimethyl-5-chlorophenyl]-2,4-pyrimidinediamine [II-213]” as the compound, how does the IC50 read?
Its IC50 is 2490 nM.

COc1c(C)cc(Nc2ncc(C)c(Nc3ccc4c(c3)S(=O)(=O)NCC4)n2)cc1C [VII-10, 5-Methyl-N4-[3,4-dihydro-1,1-dioxide-2H-1,2-benzothiazin-7-yl]-N2-[3,5-dimethyl-4-methoxyphenyl]-2,4-pyrimidinediamine] was tested. Which IC50 did it give?
Its IC50 is 144 nM.

O=S(=O)(NCCc1ccc(Nc2nc(Nc3ccc(-c4ccccc4)cc3)ncc2Cl)cc1)C1CC1 [II-58, 5-Chloro-N4[4-(N-cyclopropylsulfonylamino)ethylphenyl]-N2-[4-biphenyl]-2,4-pyrimidinediamine] was tested. Which IC50 did it give?
Its IC50 is 16200 nM.

With COc1c(Cl)cc(Nc2ncc(Cl)c(Nc3ccc(CNS(=O)(=O)N(C)C)cc3)n2)cc1Cl [II-94, 5-Chloro-N2-[3,5-dichloro-4-methoxyphenyl]-N4-[(4-(dimethylamino)sulfonylamino)methylphenyl]-2,4-pyrimidinediamine] as the compound, how does the IC50 read?
Its IC50 is 13500 nM.

With Cc1cnc(Nc2ccc(N3CCN(C)CC3)cc2F)nc1Nc1ccc(CCNS(=O)(=O)C2CC2)cc1 [II-73] as the compound, how does the IC50 read?
Its IC50 is 595 nM.

With CCOc1c(C)cc(Nc2ncc(Cl)c(Nc3ccc(CNS(N)(=O)=O)cc3)n2)cc1C [II-147, N4-[4-(Aminosulfonylamino)methylphenyl]-5-chloro-N2-(3,5-Dimethyl-4-ethoxyphenyl)-2,4-pyrimidinediamine] as the compound, how does the IC50 read?
The IC50 was 142 nM.

For Cc1cnc(Nc2ccc(N3CCN(C)CC3)cc2C(F)(F)F)nc1Nc1ccc(CCNS(=O)(=O)C2CC2)cc1 [II-70], which IC50 is on record?
Its IC50 is 1390 nM.

With COc1c(C)cc(Nc2ncc(Cl)c(Nc3ccc(CNS(=O)(=O)NC4CC4)cc3)n2)cc1C [II-154, 5-Chloro-N4-[4-((N-cyclopropylamino)sulfonylamino)methylphenyl]-N2-(3,5-dimethyl-4-methoxyphenyl)-2,4-pyrimidinediamine] as the compound, how does the IC50 read?
Its IC50 is 42.9 nM.

With CCCN1CCN(c2ccc(Nc3ncc(C)c(Nc4ccc(CCNS(=O)(=O)C5CC5)cc4)n3)c(C(F)(F)F)c2)CC1 [II-71] as the compound, how does the IC50 read?
The IC50 was 1400 nM.

For O=S(=O)(NCc1ccc(Nc2nc(Nc3ccc(-c4cccnc4)cc3)ncc2Cl)cc1)C1CC1 [II-193, 5-Chloro-N4-[4-(N-cyclopropylsulfonylamino)methylphenyl]-N2-[4-(3-pyridinyl)phenyl]-2,4-pyrimidinediamine], which IC50 is on record?
The IC50 was 1300 nM.

For COc1c(C)cc(Nc2ncc(C)c(Nc3ccc(CNS(=O)(=O)NC4CC4)cc3)n2)cc1C [II-162, N4-[4-((N-Cyclopropylamino)sulfonylamino)methylphenyl]-N2-(3,5-dimethyl-4-methoxyphenyl)-5-methyl-2,4-pyrimidinediamine], which IC50 is on record?
The IC50 was 134 nM.

With CCCN1CCN(c2ccc(Nc3ncc(Cl)c(Nc4ccc(CCNS(=O)(=O)C5CC5)cc4)n3)c(C(F)(F)F)c2)CC1 [II-54, 5-Chloro-N4[4-(N-cyclopropylsulfonylamino)ethylphenyl]-N2-[4-(4-propylpiperazino)-2-trifluoromethylphenyl]-2,4-pyrimidinediamine] as the compound, how does the IC50 read?
The IC50 was 1970 nM.

With Cc1cc(CNS(=O)(=O)C2CC2)ccc1Nc1nc(NC2=CC(C)C(C)(OCCN3CCOCC3)C=C2)ncc1C (stereo not drawn) [II-161, N2-[3,4-Dimethyl-4-(2-(4-morpholinyl)ethoxy)phenyl]-5-methyl-N4-[2-methyl-4-(N-cyclopropylsulfonylamino)methylphenyl]-2,4-pyrimidinediamine] as the compound, how does the IC50 read?
The IC50 was 149 nM.

For COc1cc(Nc2ncc(C)c(Nc3ccc(CNS(=O)(=O)C4CC4)cc3)n2)cc(Cl)c1OC [II-198, 5-Methyl-N4-[4-(N-cyclopropylsulfonylamino)methylphenyl]-N2-[3,4-dimethoxy-5-chlorophenyl]-2,4-pyrimidinediamine], which IC50 is on record?
Its IC50 is 116 nM.

Which IC50 does the source give for Cc1cnc(Nc2ccc(-c3ccccc3)cc2)nc1Nc1ccc(CCNS(=O)(=O)C2CC2)cc1 [II-75] here?
The IC50 was 10400 nM.

Which IC50 does the source give for COc1cc(Nc2ncc(Cl)c(Nc3cccc(S(=O)(=O)NC(C)(C)C)c3)n2)cc(OC)c1OC [I-15, 5-Chloro-N4-[3-(N-tert-butylsulfonyl)phenyl]-N2-[3,4,5-trimethoxyphenyl]-2,4-pyrimidinediamine] here?
Its IC50 is 225 nM.

With Cc1cnc(Nc2cncc(C)c2N2CCN(C)CC2)nc1Nc1ccc2c(c1)S(=O)(=O)NCC2 [VII-6, 5-Methyl-N4-[3,4-dihydro-1,1-dioxide-2H-1,2-benzothiazin-7-yl]-N2-[5-methyl-4-(N-methylpiperizin-4-yl)pyridine-3-yl]-2,4-pyrimidinediamine] as the compound, how does the IC50 read?
Its IC50 is 1900 nM.

How did the IC50 turn out when Cc1cnc(Nc2ccc(N3CCC(F)(F)CC3)cc2)nc1Nc1ccc(CNS(=O)(=O)N(C)C)cc1 [II-105, N4-[(4-(Dimethylamino)sulfonylamino)methylphenyl]-N2-[4-(4,4-difluoro-1-piperidinyl)phenyl]-5-methyl-2,4-pyrimidinediamine] was run?
The IC50 was 20300 nM.

Which IC50 does the source give for CN1CCN(c2ccc(Nc3nccc(Nc4cccc(S(=O)(=O)NC(C)(C)C)c4)n3)cc2)CC1 [I-19, N4-[3-(N-tert-butylsulfonyl)phenyl]-N2-[4-(4-methylpiperazine)-phenyl]-2,4-pyrimidinediamine] here?
The IC50 was 603 nM.

Cc1cnc(Nc2ccc(C3CCN(C)CC3)cc2)nc1Nc1ccc2c(c1)C(NS(=O)(=O)C1CC1)CC2 (racemic) [V-5, (+/−)-N4-[1-(Cyclopropylsulfonylamino)indan-6-yl]-5-methyl-N2-[4-(1-methyl-4-piperidinyl)pheny]-2,4-pyrimidinediamine] was tested. Which IC50 did it give?
Its IC50 is 999 nM.

How did the IC50 turn out when CCNS(=O)(=O)NCc1ccc(Nc2nc(Nc3ccc(N4CCN(C)CC4)cc3)ncc2Cl)cc1 [II-114, 5-Chloro-N4-[(4-(ethylamino)sulfonylamino)methylphenyl]-N2-[4-(4-methyl-1-piperazinyl)phenyl]-2,4-pyrimidinediamine] was run?
The IC50 was 180 nM.

For CCc1cnc(Nc2cc(OC)c(OC)c(OC)c2)nc1Nc1ccc(CNS(=O)(=O)C2CC2)cc1 [II-85, N4-[4-(N-Cyclopropylsulfonylamino)methylphenyl]-5-ethyl-N2-(3-,4,5-trimethoxylphenyl)-2,4-pyrimidinediamine], which IC50 is on record?
Its IC50 is 2690 nM.

With COc1cc(Nc2ncc(C)c(Nc3ccc(CNS(=O)(=O)N(C)C)cc3)n2)cc(OC)c1OC [II-103, N4-[(4-(Dimethylamino)sulfonylamino)methylphenyl]-5-methyl-N2-(3,4,5-trimethoxyphenyl)-2,4-pyrimidinediamine] as the compound, how does the IC50 read?
Its IC50 is 509 nM.

How did the IC50 turn out when “5-Chloro-N4-[3,4-dihydro-1,1-dioxide-2H-1,2-benzothiazin-7-yl]-N2-[4-(N-methylpiperizin-4-yl)phenyl]-2,4-pyrimidinediamine [VII-5]” was run?
The IC50 was 13200 nM.

How did the IC50 turn out when Cc1cnc(Nc2cncc(C)c2N2CCN(C)CC2)nc1Nc1ccc2c(c1)S(=O)(=O)NCC2 [VII-7, 5-Methyl-N4-[3,4-dihydro-1,1-dioxide-2H-1,2-benzothiazin-7-yl]-N2-[5-methyl-4-(N-methylpiperizin-4-yl)pyridine-3-yl]-2,4-pyrimidinediamine] was run?
Its IC50 is 5390 nM.

With CCc1cnc(Nc2cc(C)c(OC)c(Cl)c2)nc1Nc1ccc(CNS(=O)(=O)C2CC2)cc1 [II-83, N2-(3-Chloro-4-methoxy-5-methylphenyl)-N4-[4-(N-cyclopropylsulfonylamino)methylphenyl]-5-ethyl-2,4-pyrimidinediamine] as the compound, how does the IC50 read?
Its IC50 is 1390 nM.

Which IC50 does the source give for CCNS(=O)(=O)NCc1ccc(Nc2nc(Nc3cc(OC)c(OC)c(OC)c3)ncc2C)cc1 [II-120, N4-[(4-(Ethylamino)sulfonylamino)methylphenyl]-5-methyl-N2-(3,4,5-trimethoxyphenyl)-2,4-pyrimidinediamine] here?
The IC50 was 871 nM.
